Consider 2 molecules from patent US20150276740A1, “METHOD FOR D[…] ACTIVITY” (SYSMEX CORPORATION, priority 2014, published 2015).

For one series, the target named is T1, CDK1 (Homo sapiens, UniProt P06493).
T1 construct: a reaction was caused to occur between CDK1 and the anti-CDK1 antibody; endogenous in cells; host or cells: K562 cells (lysate, immunoprecipitated with anti-CDK1 antibody from Operon on protein A Sepharose beads)
Put plainly: Determination of CDK1 kinase activity using chemical luminescence with the ATP derivative as phosphate-group donor (S/N evaluation). The class given is biochemical. The conditions noted are these: CDK1 immunoprecipitated from K562 solubilized sample; biotinylated CDK2 substrate peptide; anti-DNP antibody detection; compared to the S/N ratio of Comparative Example 1 (ATPγS as phosphate-group donor). On the procedure: In a well of a 96-well filter plate (hydrophilic PVDF membrane manufactured by Millipore Corp.), 70 μL of an immunoprecipitation buffer (a buffer containing 0.1 mass % Nonidet NP-40 and 50 mM tris hydrochloride (pH7.4)) was added. Then, with respect to the immunoprecipitation buffer in the well, 20 μL of an antibody solution containing 16 μg of an anti-CDK1 antibody (manufactured by Operon Co., ltd.), and 30 μL of 20 v/v % Sepharose beads (manufactured by GE Healthcare) coated with protein A were added. […]
Next, with respect to the beads that had been cleaned, 50 μL of the CDK substrate solution (composition: 100 ng/μL biotinylated CDK2 substrate peptide (manufactured by Enzo Inc.), the compound 2 represented by formula (x2), 54 mM tris hydrochloride (pH7.4), and 20 mM magnesium chloride) was added to obtain a mixture. The concentration of the compound 2 was a concentration that provided an absorbance of 2 at 362 nm. This absorbance was measured in a manner similar to that in Example 1 (2). […]

Series [1] concerns biotinylated CDK2 substrate peptide (Biotin-Ahx-His-His-Ala-Ser-Pro-Arg-Lys).

T1 sequence (P06493 whole entry): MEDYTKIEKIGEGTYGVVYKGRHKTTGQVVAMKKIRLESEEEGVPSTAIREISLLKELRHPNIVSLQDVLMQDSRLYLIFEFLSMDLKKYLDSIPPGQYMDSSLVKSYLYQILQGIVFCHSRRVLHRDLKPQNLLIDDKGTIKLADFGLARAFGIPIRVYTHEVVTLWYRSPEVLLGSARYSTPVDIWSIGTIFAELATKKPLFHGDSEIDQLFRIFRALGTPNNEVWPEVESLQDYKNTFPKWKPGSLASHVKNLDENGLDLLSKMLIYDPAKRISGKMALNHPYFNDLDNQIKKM
T1 sequence (P14635 whole entry partner): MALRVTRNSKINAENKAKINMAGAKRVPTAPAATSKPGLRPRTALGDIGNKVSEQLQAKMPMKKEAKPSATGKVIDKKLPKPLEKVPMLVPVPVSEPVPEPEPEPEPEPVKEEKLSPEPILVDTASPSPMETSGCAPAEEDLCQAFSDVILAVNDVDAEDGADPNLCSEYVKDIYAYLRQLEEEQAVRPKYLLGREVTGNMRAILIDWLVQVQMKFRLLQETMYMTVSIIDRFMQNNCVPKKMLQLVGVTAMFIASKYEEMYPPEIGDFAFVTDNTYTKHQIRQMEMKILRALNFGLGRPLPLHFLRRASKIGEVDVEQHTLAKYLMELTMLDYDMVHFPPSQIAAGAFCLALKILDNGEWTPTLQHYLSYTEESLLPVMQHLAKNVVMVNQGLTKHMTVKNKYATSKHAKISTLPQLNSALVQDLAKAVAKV

Take `Nc1ncnc2c1ncn2C1OC(COP(=O)(O)OP(=O)(O)OP(=O)(O)SC2CC(=O)N(CCC(=O)NCCOCCOCCCNC(CCCCNc3ccc([N+](=O)[O-])cc3[N+](=O)[O-])C(=O)O)C2=O)C(O)C1O` (centres unmarked) [compound 4]: the “S/N ratio (luminescence intensity A1/luminescence intensity B)” value at CDK1 is “tended to be high”.
cyclin-dependent kinase (CDK) 2: in series [1], the “specific luminescence intensity based on CDK2 activity (ATPγDNP transphosphorylation, ALP labeled anti-DNP antibody, chemiluminescence)” value is recorded as “the specific luminescence intensity based on CDK2 activity increases in association with an increase in the CDK2 concentration (increase in the solubilized sample concentration)”.
